Values after ≈ are worked out from the molar mass of the structure shown. Where two headings read alike, the source gives them in different places. Positions of bridges follow the written chain, without caps; N, C: chain ends. Non-standard residues stand in square brackets, D forms with d. Residues, ends and D or L forms follow the SMILES beside them. Chains are numbered I, II in the order given. No end group written: not given here. Ahx = NCCCCCC(=O)O
Assays:
C. albicans ATCC SC5314 [1] = assay type: cell-based, Candida albicans
Method: (§1) Antifungal susceptibility testing was carried out using the broth microdilution (BMD) method, following the CLSI M27-A3 guidelines with slight modifications. Briefly, cells (0.5–2.5 × 10^3 CFU/mL) were incubated with peptides (200, 100, 50, 25, 12.5, and 6.25 µg/mL) at 37 °C for 48 h. MICs were visualized and densitometry (595 nm, microplate reader, Bio-Rad, ᵢMark^TM) was used to determine the lowest concentration of peptide that caused a significant decrease (MIC/2 or ≥50%) compared with the growth control (cells incubated in absence of peptide) (n = 3). In order to verify that the peptides were able to kill the yeast cells, the plates were also evaluated for minimum fungicidal concentration (MFC). Briefly, aliquots from each well from susceptibility testing assays were transferred to plates containing Sabouraud dextrose agar (SDA), which were then incubated at 37 °C for 24 h. The highest dilution with no growth on the agar plate was considered to be the MFC.

C. albicans 256 HUSI-PUJ [2] = assay type: cell-based, Candida albicans; conditions: for MFC: 24 h; for MIC: 48 h
Method: as §1

C. albicans ATCC SC5314 [3] = assay type: cell-based, Candida albicans; conditions: for Effect of the combination with FLC (by FICI): checkerboard; for MICa/A: factor by which the chimera is potentiated in combination: peptide combined with FLC
Method: (§2) The in vitro interactions between the peptides (C6, C8, and C9) and the FLC drug were evaluated in a checkerboard assay, as previously described by Cokol et al.. Briefly, each isolate was prepared by picking colonies from an overnight culture in SBD at 37 °C and suspended in a sterile normal saline PBS buffer. The fungal inoculum was adjusted to 0.5 MacFarland and the inoculum was adjusted to 0.5–2.5 × 10^3 CFU/mL. The drug-peptide combinations were formed over a range of concentrations: 0 (control) and 0.06 to 2 times the MIC [51]. The fractional inhibitory concentration index (FICI) was calculated as follows:
(§3) FICI=CML peptide in combination/CMI peptide alone+CML FLC in combination/CMI FLC alone
(§4) The calculated FICI was reported as synergy with values FICI ≤ 0.5, additive FICI > 0.5–1, indifference FICI > 1–4, and antagonism FICI ≥ 4 [52].
(§5) A synergistic effect was considered to be when the effect of the combination exceeded the effects of the individual components. An additive effect was when the effect of the combination was equal to the sum of the effects of the individual components.

C. albicans 256 HUSI-PUJ [4] = assay type: cell-based, Candida albicans; conditions: for MICa/A: factor by which the chimera is potentiated in combination: peptide combined with FLC; for MICa: MIC of the chimeric peptide alone: 256 HUSI-PUJ
Method: as §2, §3, §4, §5

C. albicans 256 = assay type: cell-based, Candida albicans; conditions: for Inhibition of growth: 256, 48 h; for Time-kill result: Fungicide concentration / Time-kill result: Fungistatic concentration: after 48 h of incubation, RPMI 1640, 37 °C, Bioscreen C
Method: (§6) A time-kill kinetic assay was carried out according to the method previously described by Pfaller and coworkers with minor modifications. The peptides (C5, C6, C8, and C9) diluted in RPMI were tested at a range of concentrations: 0 (control), 0.2, 0.5, 1, and 2 times the MIC value for each strain. The isolates were subcultured on SBD, and then an inoculum was adjusted to a 0.5–2.5 × 10^3 CFU/mL in an RPMI 1640 medium. Yeast inoculum (150 uL) was added to a 100-well plate containing serial dilutions of the peptides. The plates were incubated with agitation at 37 °C in a plate reader (Bioscreen C MBR automated turbidometric analyzer, Growth Curves Ltd., Helsinki, Finland), which takes hourly absorbance readings. Moreover, fluconazole MICs were used as a control. The readings were analyzed with Bioscreen software (Growth Curves USA, Piscataway, NJ, USA) and GraphPad Prism 8.0.1 (GraphPad Soft-ware, San Diego, CA, USA). Statistical comparisons were made using an analysis of variance (two-way ANOVA) followed by a Tukey–Kramer post hoc test. P values less than 0.005 were considered significant. […] Moreover, previously determined FLC MICs (data not shown) were used as a control.

C. albicans SC5314 = assay type: cell-based, Candida albicans; conditions: for Inhibition of growth: SC5314, 48 h; for Time-kill result: Fungicide concentration / Time-kill result: Fungistatic concentration: after 48 h of incubation, RPMI 1640, 37 °C, Bioscreen C
Method: as §6

C. auris 537 = assay type: cell-based; conditions: 537, 48 h
Method: as §1

C. glabrata 1875 = assay type: cell-based; conditions: 1875, 48 h
Method: as §1

C. auris 001 = assay type: cell-based; conditions: 001, 48 h
Method: as §1

C. auris 537 HUSI-PUJ = assay type: cell-based
Method: as §2, §3, §4, §5

C. glabrata ATCC 2001 = assay type: cell-based
Method: as §2, §3, §4, §5

C. auris 001 HUSI-PUJ = assay type: cell-based
Method: as §2, §3, §4, §5

C. glabrata 1875 CHU-PUJ = assay type: cell-based
Method: as §2, §3, §4, §5

human red blood cells = tested on: human red blood cells; set-up: method as in PMID 33369144; conditions: cited from earlier work
[5] = FLC-sensitive reference strain, aliquots plated on SDA, 37 °C, 24 h, no growth
[6] = FLC-sensitive reference strain, broth microdilution CLSI M27-A3, 37 °C, 48 h, ≥50% decrease vs growth control, n = 3
[7] = FLC-resistant clinical isolate, aliquots plated on SDA, 37 °C, no growth
[8] = FLC-resistant clinical isolate, broth microdilution CLSI M27-A3, 37 °C, ≥50% decrease vs growth control, n = 3
[9] = fungistatic = growth inhibition >70% for 48 h
[10] = checkerboard run with C6, unit from footnote of Table 4
[11] = time-kill curve, peptide at 12.5 µg/mL (4 µM)

Compound	MFC (C. albicans ATCC SC5314 [1]; ATCC SC5314, 24 h) [µM]	MIC (C. albicans ATCC SC5314 [1]; ATCC SC5314, 48 h) [µM]	MFC (C. albicans ATCC SC5314 [1]; [5]) [µg/mL]	MIC (C. albicans ATCC SC5314 [1]; [6]) [µg/mL]	MFC (C. albicans 256 HUSI-PUJ [2]; 256 HUSI-PUJ) [µM]	MIC (C. albicans 256 HUSI-PUJ [2]; 256 HUSI-PUJ) [µM]	MFC (C. albicans 256 HUSI-PUJ [2]; [7]) [µg/mL]	MIC (C. albicans 256 HUSI-PUJ [2]; [8]) [µg/mL]	Effect of the combination with FLC (by FICI) (C. albicans ATCC SC5314 [3])	MICa/A: factor by which the chimera is potentiated in combination (C. albicans ATCC SC5314 [3])	MICa/A: factor by which the chimera is potentiated in combination (C. albicans 256 HUSI-PUJ [4])	Inhibition of growth (C. albicans 256)	Time-kill result: Fungicide concentration (C. albicans 256; fungicidal = yeast kill ≥99%) [µg/mL]	Time-kill result: Fungistatic concentration (C. albicans 256; [9]) [µg/mL]	Time-kill result: Fungicide concentration (C. albicans 256; value in brackets) [µM]	Time-kill result: Fungistatic concentration (C. albicans 256; value in brackets) [µM]	Inhibition of growth (C. albicans SC5314)	Time-kill result: Fungicide concentration (C. albicans SC5314; fungicidal = yeast kill ≥99%) [µg/mL]	Time-kill result: Fungistatic concentration (C. albicans SC5314; [9]) [µg/mL]	Hemolytic effect (human red blood cells)	other results
CC(C)C[C@H](NC(=O)[C@H](CC(C)C)NC(=O)[C@H](CCCNC(=N)N)NC(=O)CCCCCNC(=O)[C@H](CCCCNC(=O)[C@H](CCCNC(=N)N)NC(=O)[C@H](Cc1c[nH]c2ccccc12)NC(=O)[C@H](CCC(N)=O)NC(=O)[C@H](Cc1c[nH]c2ccccc12)NC(=O)[C@H](CCCNC(=N)N)NC(=O)[C@@H](N)CCCNC(=N)N)NC(=O)[C@H](CCCNC(=N)N)NC(=O)[C@H](Cc1c[nH]c2ccccc12)NC(=O)[C@H](CCC(N)=O)NC(=O)[C@H](Cc1c[nH]c2ccccc12)NC(=O)[C@H](CCCNC(=N)N)NC(=O)[C@@H](N)CCCNC(=N)N)C(=O)N[C@@H](CCCNC(=N)N)C(N)=O [C8] (I: H-RRWQWRK[Ahx]RLLR-NH2 / II: H-RRWQWR; amide I:7-II:C; N-terminus assumed)	37	37	100	100	37	37	100	100	synergistic	8	2	more than 90%	200	100	73	37	more than 90%	200	100		Effect of the combination with FLC (by FICI) (C. albicans 256 HUSI-PUJ [4]; checkerboard): indifferent; Incubation time up to which yeast growth was inhibited (C. albicans 256; time-kill curve, peptide at 100 µg/mL): ~40 h; Time-kill result: Fungicide concentration (C. albicans SC5314; value in brackets): 73 µM; Time-kill result: Fungistatic concentration (C. albicans SC5314; value in brackets): 37 µM; Incubation time up to which yeast growth was completely inhibited (C. albicans SC5314; time-kill curve, peptide at 100 µg/mL (37 µM)): about 23 h
CC(C)C[C@H](NC(=O)[C@H](CC(C)C)NC(=O)[C@H](CCCNC(=N)N)NC(=O)[C@H](CCCNC(=N)N)NC(=O)[C@H](CC(C)C)NC(=O)[C@H](CC(C)C)NC(=O)[C@H](CCCNC(=N)N)NC(=O)CCCCCNC(=O)[C@H](CCCCN)NC(=O)[C@H](Cc1c[nH]c2ccccc12)NC(=O)[C@H](CCC(N)=O)NC(=O)[C@H](Cc1c[nH]c2ccccc12)NC(=O)[C@H](CCCCN)NC(=O)[C@@H](N)CCCCN)C(=O)N[C@@H](CCCNC(=N)N)C(N)=O [C6] (H-KKWQWK[Ahx]RLLRRLLR-NH2)	48	24			48	24						more than 90%					more than 90%			2–4%	MIC (C. auris 537): 96 µM (≈ 201 µg/mL); MIC (C. glabrata 1875): 96 µM (≈ 201 µg/mL); MIC (C. auris 001): 96 µM (≈ 201 µg/mL); MICa: MIC of the chimeric peptide alone (C. auris 537 HUSI-PUJ; 537 HUSI-PUJ): 400 µg/mL; MICa: MIC of the chimeric peptide alone (C. glabrata ATCC 2001; ATCC 2001): 100 µg/mL; MICa: MIC of the chimeric peptide alone (C. auris 001 HUSI-PUJ; 001 HUSI-PUJ): 400 µg/mL; MICa: MIC of the chimeric peptide alone (C. glabrata 1875 CHU-PUJ; 1875 CHU-PUJ): 400 µg/mL; MICa: MIC of the chimeric peptide alone (C. albicans 256 HUSI-PUJ [4]): 100 µg/mL
RLLRRRWQWR-NH2 [C3]	131	66			131	66														2–4%	
OC(Cn1cncn1)(Cn1cncn1)c1ccc(F)cc1F [FLC, fluconazole, reference compound]				1				64													MICb: MIC of fluconazole alone (C. auris 537 HUSI-PUJ; [10]): 64 µg/mL; MICb: MIC of fluconazole alone (C. glabrata ATCC 2001; [10]): 0.3 µg/mL; MICb: MIC of fluconazole alone (C. auris 001 HUSI-PUJ; [10]): 32 µg/mL; MICb: MIC of fluconazole alone (C. glabrata 1875 CHU-PUJ; [10]): 4 µg/mL
CC(C)C[C@H](NC(=O)[C@H](CC(C)C)NC(=O)[C@H](CCCNC(=N)N)NC(=O)[C@H](CCCNC(=N)N)NC(=O)[C@H](CC(C)C)NC(=O)[C@H](CC(C)C)NC(=O)[C@H](CCCNC(=N)N)NC(=O)CCCCCNC(=O)[C@H](CCCCNC(=O)[C@H](CCCNC(=N)N)NC(=O)[C@H](Cc1c[nH]c2ccccc12)NC(=O)[C@H](CCC(N)=O)NC(=O)[C@H](Cc1c[nH]c2ccccc12)NC(=O)[C@H](CCCNC(=N)N)NC(=O)[C@@H](N)CCCNC(=N)N)NC(=O)[C@H](CCCNC(=N)N)NC(=O)[C@H](Cc1c[nH]c2ccccc12)NC(=O)[C@H](CCC(N)=O)NC(=O)[C@H](Cc1c[nH]c2ccccc12)NC(=O)[C@H](CCCNC(=N)N)NC(=O)[C@@H](N)CCCNC(=N)N)C(=O)N[C@@H](CCCNC(=N)N)C(N)=O [C9] (I: H-RRWQWRK[Ahx]RLLRRLLR-NH2 / II: H-RRWQWR; amide I:7-II:C; N-terminus assumed)	15	15	50	50	15	15	50	50	synergistic	4	2	more than 90%	25	13	8	4	more than 90%	25	13		MICa: MIC of the chimeric peptide alone (C. albicans ATCC SC5314 [3]; ATCC SC5314): 100 µg/mL; MICa: MIC of the chimeric peptide alone (C. albicans 256 HUSI-PUJ [4]): 50 µg/mL; Incubation time up to which strain growth was completely inhibited (C. albicans 256; [11]): approximately 20 h; Time-kill result: Fungicide concentration (C. albicans SC5314; value in brackets): 8 µM; Time-kill result: Fungistatic concentration (C. albicans SC5314; value in brackets): 4 µM; Incubation time up to which strain growth was completely inhibited (C. albicans SC5314; [11]): approximately 20 h
CC(C)C[C@H](NC(=O)[C@H](CC(C)C)NC(=O)[C@H](CCCCN)NC(=O)[C@H](CCCCN)NC(=O)[C@H](CC(C)C)NC(=O)[C@H](CC(C)C)NC(=O)[C@H](CCCCN)NC(=O)CCCCCNC(=O)[C@H](CCCNC(=N)N)NC(=O)[C@H](Cc1c[nH]c2ccccc12)NC(=O)[C@H](CCC(N)=O)NC(=O)[C@H](Cc1c[nH]c2ccccc12)NC(=O)[C@H](CCCNC(=N)N)NC(=O)[C@@H](N)CCCNC(=N)N)C(=O)N[C@@H](CCCCN)C(N)=O [C5] (H-RRWQWR[Ahx]KLLKKLLK-NH2)	97				97							more than 90%					more than 90%			2–4%	
